Test results taken from patent US9844599B2, “Nitric oxide releasing produgs of therapeutic agents” (priority 2013, dated 2017).

Assays:
[1] = Acute gastric ulcerogenesis activity study; settings: rats, acute oral; aspirin 100 mg/kg, I-D1-R1 298.85 mg/kg, naproxen 100 mg/kg, I-D2-R1 138.67 mg/kg
Experimental: The animals were sacrificed after 5 h of drug administration. The stomachs of the treated animals were separated, perfused with 2% formalin (10 mL), and a large curvature was excised. The severity of the mucosal damage was assessed on the basis of the size of the observed ulcer lesions in the images captured using a stereomicroscope attached to a digital camera (Stemi 2000, Zeiss, Germany). The Image Pro Plus software (version 5.1) was used to quantify the hemorrhagic/ulcer lesions in pixels and to convert them into mm^2. The total area of lesions was calculated for each treatment group and the measure of gastric ulcers (Mean±SEM) (mm^2) was estimated (FIGS. 5 and 6).

[2] = tested on: serum thromboxane B2 (TXB2) formation; experiment: Inhibition of serum thromboxane B2 (TXB2) formation; type: in vivo, Sprague-Dawley (SD) rats; settings: SD rats, 30 mg/kg aspirin or equimolar 44.82 mg/kg, p.o., o.d., 7 days
Experimental: Aspirin is used as an antiplatelet agent for the treatment of cardiovascular complications. […] It is therefore possible to achieve complete suppression of platelet. TXA2 (and also TXB2) formation via chronic administration of aspirin at a dose of 30 mg/daily (Patrignani, P., et al. J. Clin. Invest. 1982, 69, 1366-1372). The antiplatelet activity of aspirin (30 mg/kg) and its prodrug I-D1-R1 (at a dose equimolar to 30 mg/kg dose of aspirin) was evaluated in Sprague-Dawley (SD) rats through estimation of serum TXB2 levels (Esser, R. et al., Br. J. Pharmacol. 2006, 144, 538-550) and the experimental results are presented in FIG. 7.
In vivo TXB2 inhibition potential of aspirin and NO-aspirin prodrugs was assessed in Sprague-Dawley (SD) rats; the serum TXB2 levels were estimated according to the reported procedure (R. Esser, R., et al., Br. J. Pharmacol. 2006, 144, 538-550). Thus, vehicle, aspirin (30 mg/kg) or aspirin prodrug I-D1-R1 (44.82 mg/kg which is equivalent to 30 mg/kg dose of aspirin) were administered orally to the overnight fasted SD rats. […] The serum TXB2 concentrations were determined by enzyme immunoassay (EIA) using commercially available TXB2 estimation kit (Cayman Chemicals, USA), according to the method described in kit information booklet.

[3] = Stability of prodrugs at RT and at 50° C. (capped vials); type: physicochemical
[4] = Stability / release of aspirin in Simulated Intestinal Fluid (SIF); type: in vitro ADME; settings: 1 mM concentration
Experimental: SIF was prepared according to the procedure described in Test Solution—USP. Thus, 0.68 g of monobasic potassium phosphate was dissolved in 25 mL of water followed by addition of 0.2N NaOH (7.7 mL) and water (50 mL). To this solution was added pancreatin (1 g) and mixed; the pH of the resulting solution was adjusted to about 6.8 with 0.2N HCl/0.2N NaOH and the solution, was diluted with water to 100 mL. The solution was utilized for in-vitro studies.
(§1) The solution of the test compound in acetonitrile (10 μL of […] solution) was dissolved in 990 μL of biological fluid (SGF/SIF/Human Plasma). The resulting reaction mixtures were incubated at 37° C. At specified time intervals, aliquots (60 μL) were withdrawn and added to acetonitrile (200 μL) and mixed well by vortexing for 2 minutes. The mixture was centrifuged at 13000 rpm for 15 min at 4° C., and the supernatant analyzed by HPLC. The amounts (area percentages) of the remaining intact prodrug (if any) and the released metabolite(s) were estimated by HPLC.
This was performed by using HPLC instrument (Waters alliance), pump 2695, and PDA detector 2996 with the following chromatographic parameters: Wavelength −210 nm; Column-Waters X-Terra RP-18, 150×3.9 mm, 5 μm; Injection volume, 25 μL; Run time, 13 min. Mode of operation was linear gradient with mobile phase A: Acetonitrile and B: 0.1% TFA in water (filtered and degassed). […]

[5] = Stability / release of aspirin and salicylic acid in human plasma; type: in vitro ADME; settings: 100 μM, FIG. 11
Experimental: Human plasma was similarly obtained by processing the blood taken from healthy human male volunteers (age group 25-35 years) who had not consumed any NSAIDS one week prior to the collection of blood. This plasma was utilized for the in-vitro experiments.
as §1
(§2) This was performed by using HPLC instrument (Waters alliance), pump 2695, and PDA detector 2996 with the following chromatographic parameters: Wavelength −210 nm; Column-Waters X-Terra RP-18, 150×3.9 mm, 5 μm; Injection volume, 25 μL; Run time, 13 min. Mode of operation was linear gradient with mobile phase A: Acetonitrile and B: 0.1% TFA in water (filtered and degassed). Flow rate was 1.0 mL/min at 25° C.

[6] = Stability of prodrugs / release of parent drug in Simulated Gastric Fluid (SGF); type: in vitro ADME; settings: for % of Prodrug remaining (μM): simulated gi fluid
Experimental: SGF was prepared according to the procedure described in Test Solution—USP. Thus, 0.2 g of sodium chloride and 0.32 g of purified pepsin (Sigma, derived from porcine stomach mucosa with an activity of 800 to 2500 units per mg of protein) were dissolved in 0.7 mL of hydrochloric acid and sufficient water to make 100 mL. This test solution has a pH of about 1.2 and was utilized for in-vitro studies.
as §1, §2

CC(=O)Oc1ccccc1C(=O)OC(C)O[N+](=O)[O-] (stereo not drawn) [I-D1-R1, 1-(nitrooxy)ethyl 2-acetoxybenzoate]
Development of gastric ulcers or lesions [1]: none of the animals | Inhibition of TXB2 formation [2]: 72.59% | Asp (Aspirin) formed on storage ([3]; 50° C., 0 h): NIL | Prodrug (area %) on storage ([3]; 50° C., 0 h): 99.14% | SA (Salicylic acid) formed on storage ([3]; 50° C., 0 h): NIL | Prodrug (area %) on storage ([3]; 50° C., 1 m): 88.34% | SA (Salicylic acid) formed on storage ([3]; 50° C., 1 m): 0.6% | Asp (Aspirin) formed on storage ([3]; 50° C., 2 d): NIL | Prodrug (area %) on storage ([3]; 50° C., 2 d): 98.84% | SA (Salicylic acid) formed on storage ([3]; 50° C., 2 d): 0.1% | Asp (Aspirin) formed on storage ([3]; 50° C., 5 d): 0.3% | Prodrug (area %) on storage ([3]; 50° C., 5 d): 98.18% | SA (Salicylic acid) formed on storage ([3]; 50° C., 5 d): 0.14% | Degradation of prodrug on storage ([3]; 50° C., after 1 month): about 11% | Degradation of prodrug on storage ([3]; 50° C., after 5 days): ~1% | Asp (Aspirin) formed on storage ([3]; RT, 0 h): NIL | Prodrug (area %) on storage ([3]; RT, 0 h): 99.14% | SA (Salicylic acid) formed on storage ([3]; RT, 0 h): NIL | Asp (Aspirin) formed on storage ([3]; RT, 1 m): 0.13% | Prodrug (area %) on storage ([3]; RT, 1 m): 98.56% | SA (Salicylic acid) formed on storage ([3]; RT, 1 m): NIL | Asp (Aspirin) formed on storage ([3]; RT, 3 d): NIL | Prodrug (area %) on storage ([3]; RT, 3 d): 98.89% | SA (Salicylic acid) formed on storage ([3]; RT, 3 d): NIL | Asp (Aspirin) formed on storage ([3]; RT, 18 d): NIL | Prodrug (area %) on storage ([3]; RT, 18 d): 98.95% | SA (Salicylic acid) formed on storage ([3]; RT, 18 d): NIL | Stability on storage (in words) ([3]; RT, up to 1 month): very stable | Release of aspirin in SIF (in words) [4]: released significant amount of aspirin | Salicylic acid released in human plasma (in words) [5]: large and proportional amount | Release of parent drug on incubation in SGF (in words) [6]: released quantitative amounts of the parent drug aspirin | % of Aspirin Released (μM) ([6]; 0 min, 1 µM, pH 1.2): 0% | AUC of aspirin (released / remaining) in SGF ([6]; 1 µM, pH 1.2): 10406 µM·h | Aspirin released in SGF, less than that of aspirin ([6]; 1 µM, pH 1.2): about 15% | % of Aspirin Released (μM) ([6]; 5 min, 1 µM, pH 1.2): 18% | % of Aspirin Released (μM) ([6]; 10 min, 1 µM, pH 1.2): 44% | % of Aspirin Released (μM) ([6]; 30 min, 1 µM, pH 1.2): 97% | % of Aspirin Released (μM) ([6]; 60 min, 1 µM, pH 1.2): 100% | % of Aspirin Released (μM) ([6]; 120 min, 1 µM, pH 1.2): 100% | % of Prodrug remaining (μM) ([6]; 0 h, 1 µM, pH 1.2): 91% | % of Prodrug remaining (μM) ([6]; 5 min, 1 µM, pH 1.2): 82% | % of Prodrug remaining (μM) ([6]; 10 min, 1 µM, pH 1.2): 56% | % of Prodrug remaining (μM) ([6]; 0.5 h, 1 µM, pH 1.2): 3% | % of Prodrug remaining (μM) ([6]; 1 h, 1 µM, pH 1.2): 0% | % of Prodrug remaining (μM) ([6]; 2 h, 1 µM, pH 1.2): 0%
